The source of these data is PubChem BioAssay (NCI).

≈ marks a conversion by molar mass, not a printed value.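 How tested: cells in 96-well plates exposed to compound for 48 hours at five concentrations. GI50 = concentration required for 50% inhibition of growth. The concentration for full growth arrest is given as TGI.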

Holding throughout (experiment): NCI anticancer screen, dose series, 48 h
The test system of experiment [1] is OVCAR-4 ovarian.
Experiment [2] has as its system CCRF-CEM leukemia.
For experiment [3], the system named is NCI/ADR-RES ovarian.
Experiment [4] concerns T-47D breast.
In experiment [5] the test system is SF-268 CNS.
The subject of experiment [6] is SW-620 colon.
Experiment [7] deals with PC-3 prostate.
The subject of experiment [8] is UACC-257 melanoma.
Experiment [9] relates to MDA-N.
For experiment [10], the system named is NCI-H226 lung.

For `COc1cc(/C=C2\CCCC3=C2NC(C)=NC3c2cc(OC)c(OC)c(OC)c2)cc(OC)c1OC` (configuration not stated), the GI50 in experiment [1] is 2.39 µM; in [2], 0.838 µM; in [3], 0.505 µM; in experiment [4], 3.25 µM; in experiment [5] it was 1.88 µM; in [6] it was 1.45 µM. For the same compound, in [7], the GI50 is 2.05 µM. The TGI in experiment [1], in [2], in experiment [3], in [4], in [5] and in experiment [6] was above 100 µM each time. Further, in experiment [7], the TGI is above 100 µM.
In the case of `CCN(CC)CC(=O)O[C@]1(CC)C(=O)OCc2c1cc1n(c2=O)Cc2cc3ccccc3nc2-1`, the TGI in [1] was 0.62 µM; in experiment [8] it was 1.05 µM; in [3], 0.165 µM; in experiment [4] it was 0.404 µM; in [6], 4.33 µM; in experiment [9], 1.58 µM. The TGI in experiment [10] was 0.23 µM; in experiment [7], above 100 µM.
As for `NC(N)=N/N=C/c1c(-c2cccc([N+](=O)[O-])c2)nc2n1CCS2`, the TGI is 29.8 µM in experiment [1]; above 100 µM in [2]; 36.1 µM in experiment [8]; above 100 µM in experiment [3]; 26.1 µM in [4]; 46.6 µM in [5]. Moreover, the TGI in [6] came to 37.7 µM; in experiment [10] it was 39 µM; in experiment [7], 44.5 µM.
Consider `O=C1CCCCC2N(C(c3ccccc3)c3ccccc3)CC[C@@]12c1ccccc1` (mixture of isomers), for which the TGI in experiment [1], in [2], in experiment [8], in [5] and in experiment [10] was above 10 µM each time.
For the compound `CN(C)CCCN1c2ccccc2Sc2cnccc21`, the TGI in [1] is above 100 µM; in [2] it was above 100 µM; in experiment [8], 49.5 µM; in experiment [3] it was above 100 µM; in experiment [4] it was above 100 µM; in [5], above 100 µM. In addition, the TGI in experiment [6], in experiment [9], in experiment [10] and in experiment [7] was above 100 µM in each case.
Consider `Cc1cc(O)c(C(C)(C)C)cc1Sc1cc(C(C)(C)C)c(O)cc1C`, for which the GI50 was 3.16 µM in experiment [1]; 2.95 µM in experiment [2]; 2.28 µM in [8]; 2.78 µM in experiment [3]; 2.09 µM in experiment [4]; 3.3 µM in [5]. Also, the GI50 in experiment [6] was 3.65 µM; in [7], 2.77 µM. Moreover, the TGI in experiment [1] is 12.5 µM; in experiment [2] it was 14.5 µM; in experiment [8], 6.89 µM; in experiment [3], 7.58 µM; in [4] it was 13.4 µM; in experiment [5], 12.9 µM. Moreover, the TGI was 13.7 µM in [6] and 10.6 µM in [7].
Turning to `Clc1ccccc1/C=C/c1cscn1`, the TGI in experiment [1], in experiment [2], in experiment [8] and in experiment [5] was above 100 µM throughout.
In the case of `O=C(O)Cc1cc(O)c(CC(=O)O)cc1O`, the TGI in experiment [1], in experiment [8], in experiment [3], in [4], in experiment [5] and in [6] was above 100 µM in each case. Also, the TGI in [9], in [10] and in [7] was above 100 µM each time.
Regarding `CCOC(=O)CN=C1NNS(=O)(=O)c2ccccc21`, the TGI in [1], in experiment [2], in [8], in experiment [3], in experiment [4] and in [5] was above 100 µM each time. The TGI in [6], in [9], in experiment [10] and in experiment [7] was above 100 µM in each case.
On to `COc1ccc(C2C3=C(Nc4ncnn42)c2ccccc2OC3c2ccccc2)cc1` (configuration not stated), for which the TGI in experiment [8] is above 100 µM; in [3], above 100 µM; in [4], 59.4 µM; in experiment [5], above 100 µM; in experiment [6] it was above 100 µM; in experiment [9] it was 44.1 µM. The TGI in experiment [7] is above 100 µM.
Regarding `CCOC(=O)C(O)(NC(=O)c1ccc(F)cc1)C(F)(F)F` (configuration not stated), the TGI in experiment [1], in experiment [2], in experiment [8], in experiment [3], in experiment [4] and in [5] was above 100 µM throughout. Moreover, the TGI in experiment [6], in [9], in experiment [10] and in [7] was above 100 µM in each case.
For the compound `Cn1c(=O)c2[nH]c(CCCCC(=O)O)nc2n(C)c1=O`, the TGI in experiment [1], in [2], in experiment [8], in [3], in experiment [4] and in [5] was above 100 µM throughout. Moreover, the TGI in experiment [6], in experiment [9], in [10] and in experiment [7] was above 100 µM throughout.
With `N#Cc1c(Cl)c2cc([N+](=O)[O-])ccc2n2c1nc1ccccc12`, the TGI in experiment [1] was 3.58 µM; in experiment [2], 4.27 µM; in experiment [8], 56 µM; in experiment [3], 28 µM; in [4], 4.8 µM; in [5], 13.6 µM. For the same compound, the values for the TGI in experiment [9], in [10] and in [7] were above 100 µM, 34.3 µM and 12.5 µM, respectively.
On to `CN(/N=C/c1ccc(OCc2cccc(COc3ccc(C=O)cc3)n2)cc1)c1cnn(-c2ccc(Cl)cc2Cl)c(=O)c1Cl`, for which the TGI in experiment [1], in experiment [2], in experiment [8], in experiment [3], in experiment [4] and in [5] was above 100 µM throughout. Besides, the TGI in experiment [6], in [9], in experiment [10] and in [7] was above 100 µM throughout.
For the compound `O=C1NN(C2=NNC3(C(=O)N2)c2ccccc2-c2ccccc23)C(c2ccccc2)=N/C1=C/c1ccc(O)cc1`, the GI50 in experiment [1] was 57.5 µg/mL; in experiment [2] it was 46.4 µg/mL; in experiment [8], 113 µg/mL; in [3] it was 50.9 µg/mL; in experiment [4] it was 27 µg/mL; in experiment [5] it was 49.9 µg/mL. Also, the GI50 in experiment [6] was 82.5 µg/mL; in [9], 56.8 µg/mL (≈ 108 µM); in [7], 56.3 µg/mL. Also, the TGI in [1], in [2], in experiment [8], in experiment [3], in experiment [4] and in [5] was above 150 µg/mL in each case. For the same compound, the TGI in [6], in experiment [9] and in [7] was above 150 µg/mL in each case.
Regarding `O=S1(=O)N(CCNc2nccc(-c3c(-c4cccc(O)c4)nc4sccn34)n2)CCN1Cc1ccccc1`, the GI50 in experiment [1] was 13.6 µM; in experiment [2] it was 2.26 µM; in experiment [8] it was 0.996 µM; in experiment [3], 14.1 µM; in experiment [4], 5.16 µM; in [5] it was 15.3 µM. In addition, the results for the GI50 in experiment [6], in [10] and in experiment [7] were 7.87 µM, 7.45 µM and 5.66 µM, respectively. Besides, the TGI was above 50 µM in experiment [1]; 30.9 µM in experiment [2]; 43.1 µM in experiment [8]; above 50 µM in experiment [3]; 27 µM in experiment [4]; above 50 µM in [5]. Further, the TGI in experiment [6] is above 50 µM; in experiment [10] it was 20.8 µM; in experiment [7] it was above 50 µM.
With `Cc1nc2ccccc2n1C(=O)c1c(F)c(F)c(F)c(F)c1F`, the TGI is 29 µM in [1]; above 100 µM in [2]; 39.1 µM in [8]; 42.4 µM in experiment [3]; above 100 µM in experiment [4]; above 100 µM in experiment [5]. In addition, the TGI in experiment [6] was 49.8 µM; in experiment [9], 33.2 µM; in [10] it was 65.5 µM; in experiment [7], 71.4 µM.
Take `O=c1c2cc(S(=O)(=O)O)ccc2nc(COc2ccc(Oc3ccc(Cl)cc3Cl)cc2)n1-c1ccc(Cl)cc1Oc1c(Cl)cccc1Cl`: the TGI in experiment [1] was above 100 µM; in [2], above 100 µM; in [8], 86.6 µM; in experiment [3], 77.4 µM; in experiment [4], above 100 µM; in experiment [5], 35.7 µM. Moreover, the TGI is 79.6 µM in [6], 99.4 µM in experiment [9], 49.6 µM in experiment [10] and above 100 µM in experiment [7].
`C=CC1(C)CCC2=C(CCC3C(C)(C(=O)OC)CCCC23C)C1=O` (configuration not stated): the TGI in [1] came out at 28.2 µM; in experiment [2], 68 µM; in experiment [8], 55.9 µM; in experiment [5], 34.9 µM; in experiment [6], 33.5 µM; in [10], 40.2 µM.
Take `COc1cc(O)c2c(c1)OCC(Cc1ccc(O)cc1)C2=O` (configuration not stated): the TGI in experiment [1], in experiment [2], in experiment [8], in experiment [3], in [4] and in experiment [5] was above 100 µM each time. In addition, the TGI in experiment [6], in [9], in experiment [10] and in experiment [7] was above 100 µM each time.
`Cc1ccc2c(c1)C1(C)OC(C=CC1=O)O2` (configuration not stated): the TGI in experiment [1] was 2.29 µM; in experiment [2] it was 0.569 µM; in experiment [8], 3.45 µM; in [3], 0.0653 µM; in experiment [4], 1.65 µM; in [5] it was 10.3 µM. The figures for the TGI in [6], in [10] and in [7] were 1.05 µM, 7.94 µM and 3.81 µM, respectively.
